Legend:
Type in all cases: biochemical
[1] = target: T1, human recombinant p38α protein kinase (Homo sapiens, UniProt Q16539); assay: Cell-free p38α MAP kinase modulation assay (phosphorylation of myelin basic protein); details: for p38α AC50 / AC50: concentration to activate phosphorylation of myelin basic protein by 50%, ANO = activation not observed at any concentration tested; for IC50 / p38α IC50: concentration to inhibit phosphorylation of myelin basic protein by 50%, INO = inhibition not observed at any concentration tested; for p38α Max % Act: maximum observed increase in p38 MAP kinase activity in presence of compound; for effect on p38α MAP kinase activity, in words: text summary of Table I; for p38α concentration at which maximum increase in activity is observed: value in parentheses in Max % Act
T1 construct: purchased UBI 14-251; host or cells: E. coli
T1 sequence (Q16539 whole entry): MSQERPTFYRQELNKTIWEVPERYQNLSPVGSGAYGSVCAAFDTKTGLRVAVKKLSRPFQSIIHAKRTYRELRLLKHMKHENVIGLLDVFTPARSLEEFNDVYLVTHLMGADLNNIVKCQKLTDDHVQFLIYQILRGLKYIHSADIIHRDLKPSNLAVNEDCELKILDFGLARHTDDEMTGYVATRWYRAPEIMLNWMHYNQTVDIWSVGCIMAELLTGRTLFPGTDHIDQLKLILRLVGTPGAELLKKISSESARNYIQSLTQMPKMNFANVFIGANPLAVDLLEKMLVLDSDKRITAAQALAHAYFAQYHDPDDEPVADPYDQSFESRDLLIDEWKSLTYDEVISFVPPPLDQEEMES
Method: In vitro cell-free p38α MAP kinase modulation assays were conducted by the method as described in Clerk et al., supra, (1998). Briefly, human recombinant p38α protein kinase expressed in E. Coli (UBI #14-251) was used. Myelin basic protein (MBP, UBI #13-110) was employed as substrate, and microtiter plate wells were coated with MBP (0.01 mg/ml) overnight at 4° C. Candidate compound and/or vehicle was preincubated with 0.075 μg/mL enzyme in modified HEPES buffer pH 7.4 at 25° C. for 15 minutes. The reaction was initiated by addition of 100 μM ATP and allowed to proceed for another 60 minutes. The reaction was terminated by aspirating the solution. Phosphorylated MBP was detected by incubation with a mouse monoclonal IgG2a anti-phosphoMBP antibody. Bound anti-phosphoMBP antibody was quantitated by incubation with a HRP conjugated goat anti-mouse IgG.

[2] = target: recombinant human p38β MAP kinase (Homo sapiens, UniProt Q15759); assay: Cell-free p38β MAP kinase modulation assay (phosphorylation of myelin basic protein); details: for p38β Max % Act: maximum observed increase in p38 MAP kinase activity in presence of compound; for p38β concentration at which maximum increase in activity is observed: value in parentheses in Max % Act; for AC50: concentration to activate phosphorylation of myelin basic protein by 50%, ANO = activation not observed at any concentration tested; for effect on p38β MAP kinase activity, in words: text summary of Table I
recombinant human p38β MAP kinase, sequence (Q15759 whole entry): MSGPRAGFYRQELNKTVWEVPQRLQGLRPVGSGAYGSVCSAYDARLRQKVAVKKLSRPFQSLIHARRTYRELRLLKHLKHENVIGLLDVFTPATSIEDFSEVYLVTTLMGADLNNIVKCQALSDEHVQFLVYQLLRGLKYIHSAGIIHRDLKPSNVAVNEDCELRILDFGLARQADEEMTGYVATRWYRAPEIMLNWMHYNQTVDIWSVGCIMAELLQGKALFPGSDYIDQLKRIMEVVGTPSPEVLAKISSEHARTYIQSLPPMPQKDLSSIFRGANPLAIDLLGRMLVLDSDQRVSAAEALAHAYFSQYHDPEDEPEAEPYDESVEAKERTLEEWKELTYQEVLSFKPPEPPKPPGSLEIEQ

[3] = target: T2, recombinant human p38γ MAP kinase (Homo sapiens, UniProt P53778); assay: Cell-free p38γ MAP kinase modulation assay (phosphorylation of myelin basic protein); details: for p38γ Max % Act: maximum observed increase in p38 MAP kinase activity in presence of compound; for effect on p38γ MAP kinase activity, in words: text summary of Table I; for p38γ concentration at which maximum increase in activity is observed: value in parentheses under Max % Act
T2 sequence (P53778 1-367): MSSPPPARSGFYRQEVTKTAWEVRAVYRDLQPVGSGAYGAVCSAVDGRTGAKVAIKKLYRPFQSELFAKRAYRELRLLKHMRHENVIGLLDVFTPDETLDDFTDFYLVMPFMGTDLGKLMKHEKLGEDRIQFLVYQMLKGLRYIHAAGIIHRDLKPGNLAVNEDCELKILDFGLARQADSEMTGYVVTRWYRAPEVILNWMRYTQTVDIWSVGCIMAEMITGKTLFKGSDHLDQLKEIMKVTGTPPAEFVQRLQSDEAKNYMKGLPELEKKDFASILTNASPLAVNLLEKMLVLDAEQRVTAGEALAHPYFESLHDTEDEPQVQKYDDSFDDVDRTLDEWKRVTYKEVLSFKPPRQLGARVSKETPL

[4] = target: T3, recombinant human p38δ MAP kinase (Homo sapiens, UniProt O15264); assay: Cell-free p38δ MAP kinase modulation assay (phosphorylation of myelin basic protein); details: for AC50: concentration to activate phosphorylation of myelin basic protein by 50%, ANO = activation not observed at any concentration tested; for p38δ Max % Act: maximum observed increase in p38 MAP kinase activity in presence of compound; for effect on p38δ MAP kinase activity, in words: text summary of Table I; for p38δ concentration at which maximum increase in activity is observed: value in parentheses under Max % Act
T3 sequence (O15264 1-365): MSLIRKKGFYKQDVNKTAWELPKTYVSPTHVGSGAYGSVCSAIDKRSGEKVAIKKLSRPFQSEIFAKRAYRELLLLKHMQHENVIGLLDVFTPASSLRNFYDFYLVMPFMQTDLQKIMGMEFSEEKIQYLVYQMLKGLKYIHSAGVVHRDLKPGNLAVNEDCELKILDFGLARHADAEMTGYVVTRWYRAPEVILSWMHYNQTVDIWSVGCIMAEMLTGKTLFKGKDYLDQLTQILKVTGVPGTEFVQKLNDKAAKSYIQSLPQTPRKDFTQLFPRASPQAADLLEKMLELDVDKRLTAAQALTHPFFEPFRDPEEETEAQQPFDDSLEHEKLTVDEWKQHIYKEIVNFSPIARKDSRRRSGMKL

[5] = concentration to inhibit phosphorylation of myelin basic protein by 50%, INO = inhibition not observed at any concentration tested
[6] = concentration to activate phosphorylation of myelin basic protein by 50%, ANO = activation not observed at any concentration tested

Structure (SMILES)	p38α AC50 [1]	IC50 [1] [µM]	p38β Max % Act [2] [%]	p38β concentration at which maximum increase in activity is observed [2] [µM]	AC50 [3, 6] [µM]	p38γ Max % Act [3] [%]	effect on p38γ MAP kinase activity, in words [3]	p38γ concentration at which maximum increase in activity is observed [3]	AC50 [4] [µM]	p38δ Max % Act [4] [%]	effect on p38δ MAP kinase activity, in words [4]	p38δ concentration at which maximum increase in activity is observed [4]	p38γ IC50 [3, 5]	other results
CC(C)c1c(C(=O)Nc2ccccc2)c(-c2ccccc2)c(-c2ccc(F)cc2)n1CC[C@@H](O)C[C@@H](O)CC(=O)[O-].CC(C)c1c(C(=O)Nc2ccccc2)c(-c2ccccc2)c(-c2ccc(F)cc2)n1CC[C@@H](O)C[C@@H](O)CC(=O)[O-].[Ca+2] [Atorvastatin calcium, atorvastatin calcium, reference compound]	ANO^d	–	–	–	–	–	–	–	–	–	–	–	–	–
CC(C)c1c(C(=O)Nc2ccccc2)c(-c2ccccc2)c(-c2ccc(F)cc2)n1CC[C@@H]1C[C@@H](O)CC(=O)O1 [Atorvastatin lactone, atorvastatin lactone]	ANO	31	19	10	~10	62	showed both inhibitory and activation activities	(10 μM)	30 to 100	112	showed both inhibitory and activation activities	(30 μM)	–	IC50 [2, 5]: 94 µM; IC50 [3, 5]: ~50 µM; IC50 [4, 5]: 83 µM; p38δ Max % Act ([4]; listed as atorvastatin lacton): about 112%
COCc1c(C(C)C)nc(C(C)C)c(C=CC(O)CC(O)CC(=O)[O-])c1-c1ccc(F)cc1.COCc1c(C(C)C)nc(C(C)C)c(C=CC(O)CC(O)CC(=O)[O-])c1-c1ccc(F)cc1.[Ca+2] (centres unmarked) [Cerivastatin calcium, reference compound]	ANO	> 30	–	–	–	–	–	–	–	–	–	–	–	–
COCc1c(C(C)C)nc(C(C)C)c(/C=C/[C@@H]2C[C@@H](O)CC(=O)O2)c1-c1ccc(F)cc1 [Cerivastatin lactone, cerivastatin lactone]	–	–	143	10	~5	115	can activate	(100 μM)	~8	158	can activate	(100 μM)	INO	AC50 [1]: ~10 µM; p38α IC50 [1]: INO; p38α Max % Act [1]: 76%; effect on p38α MAP kinase activity, in words [1]: can activate; p38α concentration at which maximum increase in activity is observed [1]: 100 µM; AC50 [2]: ~5 µM; p38β IC50 [2, 5]: INO; effect on p38β MAP kinase activity, in words [2]: can activate; p38δ IC50 [4, 5]: INO
CC(C)n1c(/C=C/C(O)CC(O)CC(=O)O)c(-c2ccc(F)cc2)c2ccccc21 (centres unmarked) [Fluvastatin sodium, fluvastatin sodium, reference compound]	ANO	–	–	–	–	–	–	–	–	–	–	–	–	–
O=C([O-])C[C@H](O)C[C@H](O)/C=C/c1c(C2CC2)nc2ccccc2c1-c1ccc(F)cc1.O=C([O-])C[C@H](O)C[C@H](O)/C=C/c1c(C2CC2)nc2ccccc2c1-c1ccc(F)cc1.[Ca+2] [Pitavastatin calcium, reference compound]	ANO	101	–	–	–	–	–	–	–	–	–	–	INO	p38γ AC50 [3, 6]: ANO
CC(C)c1nc(N(C)S(C)(=O)=O)nc(-c2ccc(F)cc2)c1/C=C/[C@@H](O)C[C@@H](O)CC(=O)O [Rosuvastatin sodium, reference compound]	ANO	–	–	–	–	–	–	–	–	–	–	–	–	–
CCC(C)(C)C(=O)O[C@H]1C[C@@H](C)C=C2C=C[C@H](C)[C@H](CC[C@@H]3C[C@@H](O)CC(=O)O3)[C@H]21 [Simvastatin lactone, simvastatin lactone]	–	–	185	100	3 to 10	127	can activate	(100 μM)	~2	611	can activate	(100 μM)	INO	AC50 [1]: ~20 µM; p38α IC50 [1]: INO^e; p38α Max % Act [1]: 207%; effect on p38α MAP kinase activity, in words [1]: can activate; p38α concentration at which maximum increase in activity is observed [1]: 100 µM; AC50 [2]: ~15 µM; p38β IC50 [2, 5]: INO; effect on p38β MAP kinase activity, in words [2]: can activate; p38δ IC50 [4, 5]: INO
